# Assay results reported in patent US20060194766A1, “Combinations comprising anti-epileptic drugs for the treatment of neurological disorders” (priority 2003, published 2006).
# Test system: MES-induced seizures
# Assay: Maximal electroshock test (MES)-induced seizures in mice
# Assay type: in vivo
# Settings: for % animals protected from seizures: pre-treatment 1 h
# Experimental: Generalized tonic-clonic seizures are induced in mice by a maximal electroshock test (MES). In brief, seizures of the hind extremities of male Tif: MAGf (SPF) mice (19-25 g) are induced by passing alternating electrical current (50 Hz, 18 mA, 0.2 s) through temporal electrodes. The compounds and carbamazepine are suspended in 0.5% methyl cellulose for p.o. administration (doses for the compounds: 3.125, 6.25, 12.5 and 20.0 mg/kg p.o). The pre-treatment period for all compounds is 1 h. Ten animals per dose are used. For each experiment one group serves as a negative control (placebo). The number of animals protected from tonic hind limb extension seizure is determined in each dose and combination group.
smiles,measurement,setting,value
NC(=O)N1c2ccccc2C=Cc2ccccc21 [Carbamazepine],% animals protected from seizures,"Carbamazepine 7.5 mg/kg combined with Compound 1, 3.125 mg/kg p.o.",40%
same,% animals protected from seizures,Carbamazepine 7.5 mg/kg p.o. combined with placebo,0%
same,% animals protected from seizures,"Carbamazepine 12.5 mg/kg combined with Compound 1, 3.125 mg/kg p.o.",80%
same,% animals protected from seizures,"Carbamazepine 12.5 mg/kg combined with Compound 1, 6.25 mg/kg p.o.",90%
same,% animals protected from seizures,"Carbamazepine 20.0 mg/kg combined with Compound 1, 6.25 mg/kg p.o.",100%
same,% animals protected from seizures,Carbamazepine 20.0 mg/kg p.o. combined with placebo,80%
same,% of the mice protected,"carbamazepine combined with placebo, doses of 7.5 to 20.0 mg/kg p.o.",up to 80%
